Holding throughout (assay): DTP human tumour cell line panel, 48 h
The test system of assay [1] is SK-OV-3 ovarian.
Assay [2] has as its system SK-MEL-28 melanoma.
The subject of assay [3] is UO-31 renal.
Assay [4] has as its system U251 CNS.
Assay [5] concerns MALME-3M melanoma.
Assay [6] has as its system MDA-MB-435.
The subject of assay [7] is CAKI-1 renal.
Assay [8] deals with HT29 colon.
In assay [9] the test system is OVCAR-3 ovarian.
Assay [10] has as its system NCI-H522 lung.
Assay [11] concerns SF-268 CNS.
For assay [12], the system named is IGROV1 ovarian.
For assay [13], the system named is KM12 colon.
For assay [14], the system named is MOLT-4 leukemia.
The test system of assay [15] is A549 NSCLC.
Assay [16] deals with OVCAR-8 ovarian.
In assay [17] the test system is BT-549 breast.
Assay [18] relates to TK-10 renal.
Assay [19] deals with SNB-19 CNS.

Structures are written as SMILES.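 Values below derive from 48-hour exposures of cells grown in 96-well plates, with endpoints linearly interpolated between the two concentrations bracketing the appropriate inhibition level. TGI denotes the concentration required for complete inhibition of growth.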

Consider `CCOC(=O)C(Cc1c2ccccc2cc2ccccc12)(NC(C)=O)C(=O)OCC`, for which the TGI in [1], in [2], in assay [3], in assay [4], in [5] and in assay [6] was over 100 µM each time. The TGI in assay [7], in assay [8], in [9], in assay [10], in assay [11] and in assay [12] was over 100 µM each time. The TGI in assay [13] is over 100 µM; in assay [14], over 90.1 µM; in assay [15], over 100 µM; in assay [16], over 100 µM; in assay [17], over 100 µM; in assay [18], over 100 µM. The TGI in assay [19] was over 100 µM.
As for `Cc1cn(C2CC(O)C(Cn3cc(Cn4ncc(=O)[nH]c4=O)nn3)O2)c(=O)[nH]c1=O` (configuration not stated), the TGI in [1], in assay [2], in [3], in assay [4], in assay [5] and in assay [6] was over 100 µM in each case. Further, the TGI in assay [7], in assay [8], in assay [9], in [10], in [11] and in assay [12] was over 100 µM in each case. Moreover, the TGI in [13], in [14], in assay [15], in [16], in assay [17] and in [18] was over 100 µM in each case. This molecule had a TGI in [19] of over 100 µM.
Turning to `CN(c1ccccc1)S(=O)(=O)c1ccccc1[N+](=O)[O-]`, the TGI in assay [1], in assay [2], in assay [3], in assay [4], in [5] and in assay [6] was over 100 µM in each case. The TGI in assay [7], in [8], in [9], in assay [10], in [11] and in [12] was over 100 µM each time. Besides, the TGI in assay [13], in assay [14], in assay [15], in assay [16], in assay [17] and in assay [18] was over 100 µM throughout. Also, the TGI in assay [19] is over 100 µM.

Broadly, the TGI is the concentration at which net growth stops.

The values are drawn from PubChem BioAssay (NCI).
